Data set [1] concerns cancer stem cell population (ZsGreen+) established from pancreatic cancer cell line Panc-1. In words: Screening of miRNAs: cell count (cell viability) of the cancer stem cell population after transfection. It counts as cell-based, human. The note with it: miRNA 10 pmol/well, lipofectamin 2000, cells counted 48 and 72 hours later, FIG. 4. The source says: A cancer stem cell line was established by transducing a pancreatic cancer cell line (Panc-1) with an ODC (Ornithine Decarboxylase)-Degron system capable of visualizing low metabolism that is a property of cancer stem cells using a retrovirus vector (FIG. 1a). The base sequence coding the used ODC-Degron is as set forth in SEQ ID NO: 10. Usually, cancer stem cells are so 26s proteasome hypometabolic that they cannot degrade the introduced fluorescently labeled Ornithine Decarboxylase Degron, and thus the fluorescent protein sufficiently accumulates to provide visualization.
However, even when the ODC-degron system was introduced into the pancreatic cancer cell line Panc-1, only about 0.06% cells emitting fluorescence (green) were obtained in total. With such a small number of cancer stem cells, a series of experiments including drug screening cannot be performed. Accordingly, further enrichment of cancer stem cells provided a cancer stem cell population in which cells having observed fluorescent coloring (i.e., cancer stem cells) accounted for about 81.18% in total (FIG. 1b). The obtained cancer stem cell population was designated as ZsGreen+.
A cell suspension prepared by suspending the cancer stem cell population (ZsGreen+) in a medium (DMEM medium containing 10% by volume FBS) was seeded in each well of a 24-well plate at a density of 5000 to 10000 cells/well, followed by culture at 37° C. overnight. Thereafter, according to the lipofectamin 2000 protocol, each miRNA was transfected at 10 pmol/well, and 48 hours and 72 hours later, the cells were counted. In addition, tests were also conducted under the same condition on a case where the miRNA was not introduced (untreated group, control), a case where has-miR-34a (SEQ ID NO: 8) was used (positive control) in place of the selected miRNA, and a case where a control miRNA (SEQ ID NO: 9) was used (NC1, negative control) in place of the selected miRNA. In addition, for comparison, the non-cancer stem cell population (ZsGreen−) was used in place of the cancer stem cell population (ZsGreen+) to conduct tests under the same condition.
The ratio of the number of cells under each condition to the number of control cells into which the miRNA was not introduced (cell viability, %) was determined.

Data set [2] has as its system human large bowel cancer cells (DLD1 line). In words: Antitumor effect on human large bowel cancer cells, cell count after transfection. It counts as cell-based. The note with it: 10 pmol/well, FIG. 11; for antitumor effect: 72 hours, positive control hsa-miR-34a; for proliferation inhibitory effect on large bowel cancer cells: cells counted 72 hours after transfection. The procedure:
(§1) A cell suspension prepared by suspending human pancreatic cancer cells (Bxpc3 line) in D-MEM medium (containing 10% by volume FBS) was seeded in each well of a 24-well plate at 3×10^3 cells/well, followed by culture at 37° C. overnight. Thereafter, according to the lipofectamin 2000 protocol, each miRNA was transfected at 10 pmol/well, and 48 hours later, the cells were counted. In addition, tests were also conducted under the same condition on a case where the miRNA was not introduced (untreated group), a case where hsa-miR-34a (SEQ ID NO: 8) was used (positive control) in place of the miRNA, and a case where a control miRNA (SEQ ID NO: 9) was used (control miRNA, negative control) in place of the selected miRNA.
As to hsa-miR-136-5p, hsa-miR-3065-3p, hsa-miR-4727-5p, hsa-miR-378g, hsa-miR-181a-5p, hsa-miR-362-5p and hsa-miR-608, evaluation was performed of the antitumor effect on human large bowel cancer cells. The specific test method is the same as that for Test Example 4 except that human large bowel cancer cells (DLD1 line) were used as cancer cells, and that the cells were counted 72 hours after transfection.

For data set [3], the system named is human pancreatic cancer cells (Bxpc3 line). Kind of data set: Antitumor effect on human pancreatic cancer cells (1), cell count after transfection. The data set is classed as cell-based. The note with it: 10 pmol/well, FIG. 8; for antitumor effect: 48 hours, positive control hsa-miR-34a; for proliferation inhibitory effect on pancreatic cancer cells: cells counted 48 hours later. The procedure: as §1

In data set [4] the test system is human esophageal cancer cells (TE11 line). In words: Antitumor effect on human esophageal cancer cells, cell count after transfection. The data set is classed as cell-based. The note with it: 10 pmol/well, FIG. 12; for antitumor effect: 72 hours, positive control hsa-miR-34a; for proliferation inhibitory effect on esophageal cancer cells: cells counted 72 hours after transfection. The procedure:
as §1
As to hsa-miR-136-5p, hsa-miR-3065-3p, hsa-miR-4727-5p, hsa-miR-378g and hsa-miR-181a-5p, evaluation was performed of the antitumor effect on human esophageal cancer cells. The specific test method is the same as that for Test Example 4 except that human esophageal cancer cells (TE11 line) were used as cancer cells, and that the cells were counted 72 hours after transfection.

Entries after “also recorded” stand apart in the source; their conditions may differ.

For the substance “has-miR-34a: positive control miRNA (SEQ ID NO: 8), conventionally considered to have the highest therapeutic effect on solid tumor (UGGCAGUGUCUUAGCUGGUUGU; listed as RNA, chemistry not given here; listed as Homo sapiens) [reference compound]”, the “proliferation inhibitory effect on cancer stem cells (cell viability)” value in data set [1] is “not sufficient”.
For “hsa-miR-362-5p: human-derived miR-362-5p; base sequence set forth in SEQ ID NO: 6 as mature miRNA (AAUCCUUGGAACCUAGGUGUGAGU; listed as RNA, chemistry not given here; listed as Homo sapiens)”, in data set [1], the “proliferation inhibitory effect on cancer stem cells (cell viability)” value is “effectively suppress proliferation of cancer stem cells; also recorded: prominent proliferation inhibitory effect”. Moreover, in data set [2], the antitumor effect result is given as “much better antitumor effect than that of hsa-miR-34a; also recorded: particularly remarkable antitumor effect” and the “proliferation inhibitory effect on large bowel cancer cells” value is listed as “strong proliferation inhibitory effect”.
Take “hsa-miR-378g: human-derived miR-378g; base sequence set forth in SEQ ID NO: 4 as mature miRNA (ACUGGGCUUGGAGUCAGAAG; listed as RNA, chemistry not given here; listed as Homo sapiens)”: the “proliferation inhibitory effect on cancer stem cells (cell viability)” value in data set [1] is on record as “effectively suppress proliferation of cancer stem cells”. In data set [3], the antitumor effect entry is “much better antitumor effect than that of hsa-miR-34a” and the “proliferation inhibitory effect on pancreatic cancer cells” value is on record as “strong proliferation inhibitory effect”. Besides, in data set [2], the antitumor effect entry is “much better antitumor effect than that of hsa-miR-34a” and the “proliferation inhibitory effect on large bowel cancer cells” value was “strong proliferation inhibitory effect”. For the same substance, in data set [4], the antitumor effect result is “much better antitumor effect than that of hsa-miR-34a” and the “proliferation inhibitory effect on esophageal cancer cells” value is given as “strong proliferation inhibitory effect”.
With “hsa-miR-608: human-derived miR-608; base sequence set forth in SEQ ID NO: 7 as mature miRNA (AGGGGUGGUGUUGGGACAGCUCCGU; listed as RNA, chemistry not given here; listed as Homo sapiens)”, the “proliferation inhibitory effect on cancer stem cells (cell viability)” value in data set [1] is reported as “effectively suppress proliferation of cancer stem cells; also recorded: prominent proliferation inhibitory effect”. Besides, in data set [2], the antitumor effect result is reported as “much better antitumor effect than that of hsa-miR-34a; also recorded: particularly remarkable antitumor effect” and the “proliferation inhibitory effect on large bowel cancer cells” value is given as “strong proliferation inhibitory effect”.
As to “hsa-miR-4727-5p: human-derived miR-4727-5p; base sequence set forth in SEQ ID NO: 3 as mature miRNA (AUCUGCCAGCUUCCACAGUGG; listed as RNA, chemistry not given here; listed as Homo sapiens)”, in data set [1], the “proliferation inhibitory effect on cancer stem cells (cell viability)” value is on record as “effectively suppress proliferation of cancer stem cells”. In addition, in data set [3], the antitumor effect result is “much better antitumor effect than that of hsa-miR-34a” and the “proliferation inhibitory effect on pancreatic cancer cells” value was “strong proliferation inhibitory effect”. For the same substance, in data set [2], the antitumor effect result was “much better antitumor effect than that of hsa-miR-34a” and the “proliferation inhibitory effect on large bowel cancer cells” value is listed as “strong proliferation inhibitory effect”. In data set [4], the antitumor effect entry is listed as “much better antitumor effect than that of hsa-miR-34a” and the “proliferation inhibitory effect on esophageal cancer cells” value was “strong proliferation inhibitory effect”.
